One data set concerns the target T1, JAK2 (Homo sapiens, UniProt O60674).
T1 construct: purchased KinaseProfiler (Eurofin, Brussels, Belgium)
Nature of the data set: Cell-free kinase activity assay, JAK2. Type of data set: biochemical.

The next data set has as its target p38 (Homo sapiens, UniProt Q16539). Nature of the data set: Cell-free kinase activity assay, p38. Type of data set: biochemical. The conditions noted are these: for IC50: p38 kinases in vitro.
In data set [1] the test system is phosphorylation of p38 (p-p38). As to the kind of experiment: Western blot of phosphorylated p38 in influenza-infected U937 cells. Type of data set: cell-based, Human. Here is the method: Figure 6 TKIs repress cytokine production by suppressing the p38 pathway. […] Cells were lysed 24 h post-infection, and the levels of phosphorylated p38 and ERK (p-p38 and p-ERK) and total p38 and ERK were assessed by western blot. A quantification of phosphorylated p38 levels for each drug treatment was included in the right panel of each figure.
Cells were homogenized in RIPA lysis buffer containing a 1% protease inhibitor cocktail (Roche) to extract total protein. Equal amounts of protein homogenates were separated by SDS-PAGE (Bio-Rad) and transferred onto polyvinylidene difluoride membranes (pore size […]; Bio-Rad). The membranes were then blotted with monoclonal antibodies against GAPDH (1:1000, ZSGB-BIO), p38, phosphor-p38, ERK, phospho-ERK, STAT1, phosphor-STAT1 (1:1000; Cell Signaling Technology), STAT3, and phosphor-STAT3 (1:1000; Cell Signaling Technology), respectively. Protein levels were detected with horseradish peroxidase-tagged secondary antibodies and enhanced chemiluminescence western blot reagents (Advansta), followed by visualization using an enhanced chemiluminescence system (AlphaEase FluorChem System, Alpha Innotech Corp.). Bands were quantified using ImageJ (Ver. 1.46; NIH, Bethesda, MD).
(Immunoblotting shows a protein as a band on a membrane.)

A short description of the next data set: in vitro. The conditions noted are these: human.
Data set [2] deals with IL-8 production in influenza virus-infected U937 cells (H1N1). Nature of the data set: cells. Type of data set: cell-based, Human. The conditions noted are these: for EC50: read-out: EC50 IL-8.
The test system of data set [3] is IP-10 production in influenza virus-infected U937 cells (H1N1). Nature of the data set: cells. Type of data set: cell-based.
Data set [4] has as its system MCP-1 production in influenza virus-infected U937 cells (H1N1). Nature of the data set: cells. Type of data set: cell-based.
Data set [5] deals with IL-8 production in influenza virus-infected U937 cells (H3N2). As to the kind of experiment: cells. Type of data set: cell-based, Human.
The subject of data set [6] is IP-10 production in influenza virus-infected U937 cells (H3N2). As to the kind of experiment: cells. Type of data set: cell-based, Human.
The subject of data set [7] is MCP-1 production in influenza virus-infected U937 cells (H3N2). As to the kind of experiment: cells. Type of data set: cell-based, Human.
Data set [8] concerns IL-8 production in influenza virus-infected U937 cells (H7N8). Nature of the data set: cells. Type of data set: cell-based, Human.
The subject of data set [9] is IP-10 production in influenza virus-infected U937 cells (H7N8). Nature of the data set: cells. Type of data set: cell-based, Human.
For data set [10], the system named is MCP-1 production in influenza virus-infected U937 cells (H7N8). As to the kind of experiment: cells. Type of data set: cell-based, Human.
Data set [11] has as its system STAT1 phosphorylation (p-STAT1). Type of data set: cell-based, Human.
A further data set concerns the target JAK1 (Homo sapiens, UniProt P23458). As to the kind of experiment: Cell-free kinase activity assay, JAK1.
Setting [12] is: Homo sapiens, U-937, secondary screen, Supplemental Table 1.
Setting [13] is: Homo sapiens, U-937, read-out: EC50 IP-10.
[14] abbreviates: Homo sapiens, U-937, read-out: EC50 MCP-1.
Setting [15] is: U937 cells, Table 1 section H1N1.
Where [16] appears, read: CC50, secondary screen, Supplemental Table 1.
Setting [17] is: secondary screen, Supplemental Table 1.

Where two headings read alike, the source gives them in different places.

T1 sequence (O60674 whole entry): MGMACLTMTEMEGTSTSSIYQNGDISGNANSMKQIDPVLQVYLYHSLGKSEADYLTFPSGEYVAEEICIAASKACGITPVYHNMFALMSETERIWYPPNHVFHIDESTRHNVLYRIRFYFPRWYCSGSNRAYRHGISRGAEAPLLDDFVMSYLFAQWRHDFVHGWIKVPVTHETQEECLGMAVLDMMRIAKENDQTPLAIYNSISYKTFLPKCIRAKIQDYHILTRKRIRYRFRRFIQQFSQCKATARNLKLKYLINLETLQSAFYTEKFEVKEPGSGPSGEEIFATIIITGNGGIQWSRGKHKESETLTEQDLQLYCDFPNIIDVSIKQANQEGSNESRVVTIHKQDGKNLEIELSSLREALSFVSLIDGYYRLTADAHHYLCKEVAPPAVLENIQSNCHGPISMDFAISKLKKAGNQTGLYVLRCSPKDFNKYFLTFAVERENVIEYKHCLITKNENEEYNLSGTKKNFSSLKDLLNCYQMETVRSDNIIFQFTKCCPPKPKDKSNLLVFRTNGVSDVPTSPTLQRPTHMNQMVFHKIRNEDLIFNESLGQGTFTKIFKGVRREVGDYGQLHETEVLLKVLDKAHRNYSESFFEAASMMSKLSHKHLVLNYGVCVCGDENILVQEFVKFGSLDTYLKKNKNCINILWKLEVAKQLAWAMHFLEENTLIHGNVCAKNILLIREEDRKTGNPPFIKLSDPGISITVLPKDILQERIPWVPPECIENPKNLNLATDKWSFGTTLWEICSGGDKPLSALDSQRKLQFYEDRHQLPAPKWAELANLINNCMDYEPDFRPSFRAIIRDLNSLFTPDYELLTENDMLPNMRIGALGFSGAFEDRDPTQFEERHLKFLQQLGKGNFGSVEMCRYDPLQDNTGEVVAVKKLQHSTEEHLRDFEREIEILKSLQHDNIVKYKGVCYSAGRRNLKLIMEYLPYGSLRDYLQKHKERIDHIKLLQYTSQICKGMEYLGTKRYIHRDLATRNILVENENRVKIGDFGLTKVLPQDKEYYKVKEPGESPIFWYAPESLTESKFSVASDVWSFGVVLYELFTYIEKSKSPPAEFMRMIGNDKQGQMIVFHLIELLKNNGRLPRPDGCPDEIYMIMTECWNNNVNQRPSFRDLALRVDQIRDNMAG
Chain of p38 (Q16539 whole entry): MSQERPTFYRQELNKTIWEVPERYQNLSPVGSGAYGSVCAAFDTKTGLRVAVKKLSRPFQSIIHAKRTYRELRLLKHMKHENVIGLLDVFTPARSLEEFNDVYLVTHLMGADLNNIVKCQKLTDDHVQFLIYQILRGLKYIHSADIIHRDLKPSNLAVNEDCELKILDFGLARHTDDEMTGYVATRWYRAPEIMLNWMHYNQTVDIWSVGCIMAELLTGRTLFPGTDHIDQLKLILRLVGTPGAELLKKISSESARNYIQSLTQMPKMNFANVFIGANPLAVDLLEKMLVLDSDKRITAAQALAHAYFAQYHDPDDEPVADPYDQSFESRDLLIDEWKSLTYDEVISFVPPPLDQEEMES
Chain of JAK1 (P23458 whole entry): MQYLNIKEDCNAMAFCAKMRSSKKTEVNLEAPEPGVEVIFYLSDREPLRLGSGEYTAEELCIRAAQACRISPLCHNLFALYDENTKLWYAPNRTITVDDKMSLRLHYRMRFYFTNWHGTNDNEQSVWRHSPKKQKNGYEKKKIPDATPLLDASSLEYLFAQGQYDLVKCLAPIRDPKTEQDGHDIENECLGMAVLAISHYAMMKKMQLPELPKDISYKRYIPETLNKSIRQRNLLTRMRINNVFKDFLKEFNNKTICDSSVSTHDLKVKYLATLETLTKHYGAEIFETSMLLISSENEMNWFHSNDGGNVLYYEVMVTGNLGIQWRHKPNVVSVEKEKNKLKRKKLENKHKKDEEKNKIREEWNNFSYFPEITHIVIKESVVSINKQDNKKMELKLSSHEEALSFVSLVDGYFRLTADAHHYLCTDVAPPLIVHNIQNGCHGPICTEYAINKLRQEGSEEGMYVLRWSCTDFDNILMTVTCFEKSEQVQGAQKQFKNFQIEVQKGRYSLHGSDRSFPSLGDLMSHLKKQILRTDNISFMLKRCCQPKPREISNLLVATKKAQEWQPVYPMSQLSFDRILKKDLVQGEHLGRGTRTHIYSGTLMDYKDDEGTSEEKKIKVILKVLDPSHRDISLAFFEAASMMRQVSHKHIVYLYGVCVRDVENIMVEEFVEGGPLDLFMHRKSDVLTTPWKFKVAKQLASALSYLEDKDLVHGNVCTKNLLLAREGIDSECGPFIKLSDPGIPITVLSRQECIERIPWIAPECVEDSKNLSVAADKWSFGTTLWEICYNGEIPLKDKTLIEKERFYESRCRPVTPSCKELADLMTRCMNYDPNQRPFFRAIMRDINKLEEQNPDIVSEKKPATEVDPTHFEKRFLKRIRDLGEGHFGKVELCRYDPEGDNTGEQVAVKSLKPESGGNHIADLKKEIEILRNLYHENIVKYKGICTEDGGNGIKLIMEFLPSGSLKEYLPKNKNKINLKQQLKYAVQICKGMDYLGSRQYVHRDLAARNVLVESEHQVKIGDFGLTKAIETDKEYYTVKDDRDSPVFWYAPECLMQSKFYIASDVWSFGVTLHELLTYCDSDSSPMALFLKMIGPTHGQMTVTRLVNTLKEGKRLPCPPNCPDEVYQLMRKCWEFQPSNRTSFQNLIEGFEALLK

As for `CCS(=O)(=O)N1CC(CC#N)(n2cc(-c3ncnc4[nH]ccc34)cn2)C1` [Baricitinib], the JAK2 activity entry on JAK2 was “inhibited”. Besides, the “p38 kinase activity in vitro” value on p38 (cell-free) is recorded as “failed to inhibit”. On p38, this compound registered an IC50 greater than 1000 nM. In addition, the “phosphorylation of p38” value in [1] (24 h post-infection, western blot, cellular model) was “suppress”. In the data set “in vitro”, this compound gave a CC50 at 48 h of 5380 nM. The compound also gave a CC50 in the data set “in vitro” (CC50) greater than 100000 nM.
For the compound `Cc1nc(Nc2ncc(C(=O)Nc3c(C)cccc3Cl)s2)cc(N2CCN(CCO)CC2)n1` [Dasatinib], the IC50 in [2] (Homo sapiens, U-937) turned out to be 1900 nM; in data set [4] (Homo sapiens, U-937, production of MCP-1 in U937 cells infected with influenza virus, Table 4, read-out: IC50 MCP-1), 190 nM; in data set [1] (Homo sapiens, U-937, read-out: IC50 p-p38) it was 1000 nM. Further, the EC50 in [2] (setting [12]) amounted to 2060 nM; in data set [2] (Homo sapiens, U-937), 1890 nM; in [3] (Homo sapiens, U-937, U937 cells infected with H1N1, read-out: EC50 IP-10), 1160 nM; in data set [3] (Homo sapiens, U-937, secondary screen, Supplemental Table 1, read-out: EC50 IP-10), 1300 nM; in data set [4] (Homo sapiens, U-937, U937 cells infected with H1N1, read-out: EC50 MCP-1), 190 nM; in data set [4] (Homo sapiens, U-937, secondary screen, Supplemental Table 1, read-out: EC50 MCP-1), 140 nM. For the same compound, the EC50 in data set [5] (Homo sapiens, U-937) was found to be 730 nM; in data set [6] (Homo sapiens, U-937) it was 17 nM; in data set [7] (Homo sapiens, U-937), 18 nM; in [8] (Homo sapiens, U-937, read-out: EC50 IL-8) it was 135 nM; in data set [9] (setting [13]), 14 nM; in data set [10] (setting [14]), 44 nM. In addition, the STAT1 phosphorylation levels entry in [11] was “significantly reduced”. Besides, the CC50 with U937 cells (setting [15]) and in “in vitro” was greater than 100000 nM throughout. Also, the maximum non-toxic concentration in the data set with U937 cells (human) came to 1 µM. This compound yielded a CC50 at 48 h in “in vitro” greater than 100000 nM.
Turning to `CC[C@@](C)(Nc1ccnc(-c2c[nH]c3ncccc23)n1)C(=O)NCC(F)(F)F` [Decernotinib], the results for the EC50 in data set [2] (setting [12]), in data set [3] (setting [13]) and in [4] (setting [14]) were 20 nM, 100 nM and 50 nM, respectively. Also, the IC50 in data set [3] (Homo sapiens, U-937, read-out: IC50 IP-10) came to 100 nM; at JAK2 it was 90 nM; against JAK1, 13 nM. In addition, the JAK2 activity result on JAK2 is recorded as “inhibited”. The CC50 in the data set “in vitro” (setting [16]) worked out at 50000 nM. Also, the JAK1 activity result on JAK1 (cell-free kinase assay) is listed as “inhibited”.
`CC(C)(C)Cn1c(N)nc2ccc(-c3[nH]c(C(C)(C)C)nc3-c3ccc(F)cc3)nc21` [LY2228820]: the IC50 in data set [2] (Homo sapiens, U-937) stood at 5 nM; in data set [4] (Homo sapiens, U-937, read-out: IC50 MCP-1) it was 2200 nM; on p38, 60 nM. The EC50 in data set [2] (setting [12]) is less than 5 nM; in data set [3] (setting [13]), 3700 nM; in data set [4] (setting [14]), 2230 nM. The CC50 in “in vitro” (setting [16]) is 50000 nM.
Consider `COc1cc(Nc2ncc(F)c(Nc3ccc4c(n3)NC(=O)C(C)(C)O4)n2)cc(OC)c1OC` [R406], for which the EC50 is 130 nM in [2]; 820 nM in data set [2] (setting [17]); 431 nM in data set [3] (U937 cells infected with H1N1, read-out: EC50 IP-10); 3500 nM in data set [3] (secondary screen, Supplemental Table 1, read-out: EC50 IP-10); 240 nM in data set [4] (U937 cells infected with H1N1, read-out: EC50 MCP-1); 270 nM in data set [4] (secondary screen, Supplemental Table 1, read-out: EC50 MCP-1). Also, the EC50 in [5] amounted to 690 nM; in [6], 5 nM; in [7] it was 62 nM; in [8] (read-out: EC50 IL-8) it was 88 nM; in [9] (read-out: EC50 IP-10), 90 nM; in data set [10] (read-out: EC50 MCP-1) it was 35 nM. The CC50 is greater than 100000 nM with U937 cells; greater than 100000 nM in the data set with U937 cells (setting [15]); greater than 100000 nM with U937 cells (U937 cells, Table 1 section H3N2); greater than 100000 nM in the data set with U937 cells (setting [17]).
Regarding `O=C(Nc1ccc(-c2ccnc(Nc3ccc(N4CCOCC4)cc3)n2)cc1)C1CCCN1` (centres unmarked) [XL019], the values for the EC50 in data set [2] (setting [12]), in [3] (setting [13]) and in [4] (setting [14]) were 510 nM, 990 nM and 940 nM, respectively. For the same compound, the CC50 in “in vitro” (setting [16]) was determined as 26700 nM.

As a reminder, the IC50 is the point on the concentration scale where inhibition reaches its midpoint. One may read the EC50 as the concentration that produces a half-maximal response.

The values are drawn from PMC11808136, “Screening and identification of host signaling pathways for alleviating influenza-induced production of pro-inflammatory cytokines, IP-10, IL-8, and MCP-1, using a U937 cell-based influenza model” (Frontiers in Microbiology, 2025).
